Assay results taken from patent US7074824B2, “Pharmaceutical compositions containing beta-lapachone, or derivatives or analogs thereof, and methods of using same” (Arqule, Inc., priority 2001, dated 2006).
≈ marks a conversion by molar mass, not a printed value. Read-outs that look alike come from different tables or passages of the source.

Assays:
A2780CP = assay: MTS growth inhibition assay; assay type: cell-based, human; conditions: A2780CP (resistant) ovarian, read-out: Growth inhibitory activity (50% effective concentration, IC50)
Procedure: (§1) A2780 and A2780/CP (ovarian); MCF-7 (breast); HT-29 (colon); BxPC-3 (pancreas); and A549 (lung). The human tumor cell lines (purchased from ATCC, Rockville, Md.) were cultured at 37° C. […] Nova Tech, Grand Island, N.Y.) containing 10% fetal bovine serum (FBS, Nova Tech). Aliquots of cells were seeded into each well of 96-well microtiter plates at a final concentration of 10^4 cells/well and incubated for 24 h prior to exposure to test compounds. […] The MTS assay is a colorimetric assay based upon the ability of viable cells to convert MTS, a novel tetrazolium compound and electron-coupling reagent, to a colored formazan product that is soluble in cell culture medium. The cell concentration is then determined by measuring the absorbance of the formazan product at 490 nm. Growth inhibition, expressed as IC50, is calculated relative to vehicle-treated control cells.

A2780 = assay: MTS growth inhibition assay; assay type: cell-based, human; conditions: A2780 (sensitive) ovarian, read-out: Growth inhibitory activity (50% effective concentration, IC50)
Procedure: as §1

A549 = assay: MTS growth inhibition assay; assay type: cell-based, human; conditions: A549 lung, read-out: Growth inhibitory activity (50% effective concentration, IC50)
Procedure: as §1

BxPC-3 = assay: MTS growth inhibition assay; assay type: cell-based, human; conditions: BxPC-3 pancreas, read-out: Growth inhibitory activity (50% effective concentration, IC50)
Procedure: as §1

HT-29 = assay: MTS growth inhibition assay; assay type: cell-based, human; conditions: HT-29 colon, read-out: Growth inhibitory activity (50% effective concentration, IC50)
Procedure: as §1

MCF-7 = assay: MTS growth inhibition assay; assay type: cell-based, human; conditions: MCF-7 breast, read-out: Growth inhibitory activity (50% effective concentration, IC50)
Procedure: as §1

[1] = test system: six human cancer cells lines; assay: MTS growth inhibition assay, summary over all lines; assay type: cell-based; conditions: all six tumor cell lines; tested up to 20 μM
Procedure: A2780 and A2780/CP (ovarian); MCF-7 (breast); HT-29 (colon); BxPC-3 (pancreas); and A549 (lung). The human tumor cell lines (purchased from ATCC, Rockville, Md.) were cultured at 37° C. (5% CO2) in RPMI medium (RPMI; Nova Tech, Grand Island, N.Y.) containing 10% fetal bovine serum (FBS, Nova Tech). Aliquots of cells were seeded into each well of 96-well microtiter plates at a final concentration of 10^4 cells/well and incubated for 24 h prior to exposure to test compounds. […] The MTS assay is a colorimetric assay based upon the ability of viable cells to convert MTS, a novel tetrazolium compound and electron-coupling reagent, to a colored formazan product that is soluble in cell culture medium. The cell concentration is then determined by measuring the absorbance of the formazan product at 490 nm. Growth inhibition, expressed as IC50, is calculated relative to vehicle-treated control cells.

[2] = Solubility in water and in 40% (w/v) HPBCD solution by UV absorbance; assay type: physicochemical
Procedure: To determine solubilities, test compounds were first dissolved in ethanol to prepare standard solutions with concentrations in the range 2.5–10 mg/ml, then were diluted with to 10 μg/ml with water. UV scans were obtained of the 10 μg/ml standard solutions, and the wavelength of maximum absorbance and the absorbance at the maximum absorbance wavelength were determined. For each test compound 50 μl aliquots of water and of 40% HPBCD were added to individual Eppendorf tubes containing approximately 1 mg of compound each. The tubes were heated in a 30° C. waterbath, vortexed, then centrifuged at 15,000 rpm for 5 min. This step was repeated, then the tubes were cooled to room temperature for 1 hour, then were centrifuged again. The supernatant from each tube was diluted with water into the appropriate absorbance range, and the UV absorbance was measured at the compound's absorbance maximum wavelength. The concentrations of these saturated solutions were then calculated by ratio to the 10 μg/ml ethanolic standard solutions.

[3] = Exp 2, 4 h treatment + 24 h drug-free
[4] = Exp 3, 4 h treatment + 24 h drug-free
[5] = 40% (w/v) HPBCD, room temperature, saturated solution
[6] = water, room temperature, saturated solution
[7] = Exp 1, 4 h treatment + 24 h drug-free

Row | IC50 (A2780CP; Exp 2) | IC50 (A2780CP; Exp 3) | IC50 (A2780CP; Mean ± SE of 3 experiments) | IC50 (A2780; [3]) | IC50 (A2780; [4]) | IC50 (A2780; Mean ± SE of 3 experiments) | IC50 (A549; Exp 2) | IC50 (A549; Exp 3) | IC50 (A549; Mean ± SE of 3 experiments) | IC50 (BxPC-3; Exp 2) | IC50 (BxPC-3; Exp 3) | IC50 (BxPC-3; Mean ± SE of 3 experiments) | IC50 (HT-29; Exp 2) | IC50 (HT-29; Exp 3) | IC50 (HT-29; Mean ± SE of 3 experiments) | IC50 (MCF-7; Exp 2) | IC50 (MCF-7; Exp 3) | Solubility Enhancement [2] | Solubility in HPBCD Solution [2] | Solubility in Water [2] | Compound | further results
1 | > 20 µM | > 20 µM | > 20 µM | > 20 µM | > 20 µM | > 20 µM | > 20 µM | > 20 µM | > 20 µM | > 20 µM | > 20 µM | > 20 µM | > 20 µM | > 20 µM | > 20 µM | > 20 µM | > 20 µM |  |  |  | CCCCCC(=O)OC1=CC(=O)C(=O)c2ccccc21 [CO-507, 4-hexanoyloxy-1,2-naphthoquinone] | IC50 (A2780CP; Homo sapiens, A2780C/P, Exp 1): > 20 µM; IC50 (A2780; Homo sapiens, Exp 1, 4 h treatment + 24 h drug-free): > 20 µM; IC50 (A549; Homo sapiens, Exp 1): > 20 µM; IC50 (BxPC-3; Homo sapiens, Exp 1): > 20 µM; IC50 (HT-29; Homo sapiens, Exp 1): > 20 µM; IC50 (MCF-7; Homo sapiens, MCF7, Exp 1): > 20 µM; IC50 (MCF-7; Mean ± SE of 3 experiments): > 20 µM; growth inhibitory activity, verbal summary [1]: inactive
2 |  |  |  |  |  |  |  |  |  |  |  |  |  |  |  |  |  | 36 −Fold | 17000 µg/mL (≈ 70.2 mM) | 476 µg/mL (≈ 1.96 mM) | CC1OC2=C(C(=O)C(=O)c3ccccc32)C1(C)C (centres unmarked) [Dunnione] | 
3 |  |  |  |  |  |  |  |  |  |  |  |  |  |  |  |  |  | 10.6 −Fold | 14600 µg/mL (≈ 56.5 mM) | 1381 µg/mL (≈ 5.35 mM) | CC1(C)OC2=C(CC1O)C(=O)C(=O)c1ccccc12 (centres unmarked) [Compound 3-Hydroxy-βL, 3-Hydroxy-βL] | 
4 |  |  |  |  |  |  |  |  |  |  |  |  |  |  |  |  |  | 240 −Fold | 5800 µg/mL (≈ 24.1 mM) | 24 µg/mL (≈ 0.0999 mM) | CC1(C)C=CC2=C(O1)c1ccccc1C(=O)C2=O [3,4-dehydro-βL] | 
5 |  |  |  |  |  |  |  |  |  |  |  |  |  |  |  |  |  | 8.7 −Fold | 4400 µg/mL (≈ 17.2 mM) | 503 µg/mL (≈ 1.96 mM) | CC1(C)CC(=O)C2=C(O1)c1ccccc1C(=O)C2=O [Compound 4-keto-βL, 4-keto-βL] | 
6 | > 20 µM | > 20 µM | > 20 µM | > 20 µM | > 20 µM | > 20 µM | > 20 µM | > 20 µM | > 20 µM | > 20 µM | > 20 µM | > 20 µM | > 20 µM | > 20 µM | > 20 µM | > 20 µM | > 20 µM |  |  |  | CC1(C)CC(=O)C2=C(O1)c1ccccc1C(=O)C2=O [CO-505] | IC50 (A2780CP; Exp 1): > 20 µM; IC50 (A2780; [7]): > 20 µM; IC50 (A549; Exp 1): > 20 µM; IC50 (BxPC-3; Exp 1): > 20 µM; IC50 (HT-29; Exp 1): > 20 µM; IC50 (MCF-7; Exp 1): > 20 µM; IC50 (MCF-7; Mean ± SE of 3 experiments): > 20 µM; growth inhibitory activity, verbal summary [1]: inactive
7 | 3.85 µM | 1.53 µM | 2.7 ± 0.67 µM | 4.79 µM | 3.23 µM | 3.5 ± 0.68 µM | 12.7 µM | 15.3 µM | 11.8 ± 2.28 µM | 8.4 µM | 9.22 µM | 7.77 ± 1.07 µM | 13.4 µM | 11.2 µM | 14 ± 1.78 µM | 3.99 µM | 3.53 µM |  |  |  | CC1OC2=C(C(=O)C(=O)c3ccccc32)C1(C)C (centres unmarked) [CO-506] | IC50 (A2780CP; Exp 1): 2.73 µM; IC50 (A2780; [7]): 2.47 µM; IC50 (A549; Exp 1): 7.5 µM; IC50 (BxPC-3; Exp 1): 5.69 µM; IC50 (HT-29; Exp 1): 17.3 µM; IC50 (MCF-7; Exp 1): 2.64 µM; IC50 (MCF-7; Mean ± SE of 3 experiments): 3.39 ± 0.4 µM; growth inhibitory activity, verbal summary [1]: activity profile similar to CO-501
8 |  |  |  |  |  |  |  |  |  |  |  |  |  |  |  |  |  | 191 −Fold | 6900 µg/mL (≈ 21.5 mM) | 36 µg/mL (≈ 0.112 mM) | CC1(C)OC2=C(CC1Br)C(=O)C(=O)c1ccccc12 (centres unmarked) [Compound 3-Bromo-βL, 3-Bromo-βL] | 
9 |  |  |  |  |  |  |  |  |  |  |  |  |  |  |  |  |  | 61 −Fold | 4100 µg/mL (≈ 13.2 mM) | 67 µg/mL (≈ 0.216 mM) | CC(C)=CCC1CC2=C(OC1(C)C)c1ccccc1C(=O)C2=O (centres unmarked) [3-(3-methyl-2-butenyl)-βL] | 

Row | Compound | IC50 (A2780CP; Exp 2) | IC50 (A2780CP; Exp 3) | IC50 (A2780CP; Mean ± SE of 3 experiments) | IC50 (A2780; [3]) | IC50 (A2780; [4]) | IC50 (A2780; Mean ± SE of 3 experiments) | IC50 (A549; Exp 2) | IC50 (A549; Exp 3) | IC50 (A549; Mean ± SE of 3 experiments) | IC50 (BxPC-3; Exp 2) | IC50 (BxPC-3; Exp 3) | IC50 (BxPC-3; Mean ± SE of 3 experiments) | IC50 (HT-29; Exp 2) | IC50 (HT-29; Exp 3) | IC50 (HT-29; Mean ± SE of 3 experiments) | IC50 (MCF-7; Exp 2) | IC50 (MCF-7; Exp 3) | Solubility Enhancement [2] | Solubility in HPBCD Solution [2] | Solubility in Water [2] | further results
10 | CC(=O)OC1CC(C)(C)OC2=C1C(=O)C(=O)c1ccccc12 (stereo not drawn) [CO-504, 4-acetoxy β-lapachone] | 4 µM | 2.56 µM | 2.41 ± 0.96 µM | 1.6 µM | 1.19 µM | 1.54 ± 0.19 µM | 6.87 µM | 3.75 µM | 9.97 ± 4.74 µM | 13.5 µM | 2.32 µM | 8.74 ± 3.33 µM | 6.67 µM | 3.98 µM | 8.25 ± 3.03 µM | 4.78 µM | 4.28 µM |  |  |  | Solubility in HPBCD Solution [2, 5]: 2100 µg/mL (≈ 6.99 mM); Solubility Enhancement ([2]; 40% HPBCD versus water): 7.4 −Fold; Solubility in Water [2, 6]: 284 µg/mL (≈ 0.946 mM); IC50 (A2780CP; Exp 1): 0.678 µM; IC50 (A2780; [7]): 1.83 µM; IC50 (A549; Exp 1): 19.3 µM; IC50 (BxPC-3; Exp 1): 10.5 µM; IC50 (HT-29; Exp 1): 14.1 µM; IC50 (MCF-7; Exp 1): 2.59 µM; IC50 (MCF-7; Mean ± SE of 3 experiments): 3.88 ± 0.67 µM; growth inhibitory activity, verbal summary [1]: very similar to CO-501 in inhibitory activity
11 | CC1(C)CC(O)C2=C(O1)c1ccccc1C(=O)C2=O (stereo not drawn) [CO-503, 4-hydroxy β-lapachone] | 9.38 µM | 14.8 µM | 10.5 ± 2.2 µM | 5.29 µM | 4.86 µM | 4.16 ± 0.92 µM | 7.63 µM | 9.77 µM | 10.6 ± 1.98 µM | > 20 µM | > 20 µM | > 20 µM | 11 µM | 12.1 µM | 12.1 ± 0.63 µM | 19.4 µM | 19.3 µM |  |  |  | Solubility in HPBCD Solution [2, 5]: 3100 µg/mL (≈ 12 mM); Solubility Enhancement ([2]; 40% HPBCD versus water): 8.0 −Fold; Solubility in Water [2, 6]: 381 µg/mL (≈ 1.48 mM); IC50 (A2780CP; Exp 1): 7.42 µM; IC50 (A2780; [7]): 2.35 µM; IC50 (A549; Exp 1): 14.3 µM; IC50 (BxPC-3; Exp 1): > 20 µM; IC50 (HT-29; Exp 1): 13.2 µM; IC50 (MCF-7; Exp 1): 18.8 µM; IC50 (MCF-7; Mean ± SE of 3 experiments): 19.2 ± 0.17 µM; growth inhibitory activity, verbal summary [1]: significantly less active across all cell lines
